Measurements reported in article PMC5806375, “Characterization and expression analysis of a newly identified glutathione S-transferase of the hard tick Haemaphysalis longicornis during blood-feeding” (Parasites & Vectors, 2018).

Legend:
[1] = target: T1, HlGST2 (recombinant HlGST2, rHlGST2) (Haemaphysalis longicornis, UniProt A0A2Z6FA39); assay: absorbance at […] nm, Lineweaver-Burk plot; format: biochemical; settings: 5 mM GSH, CDNB 0.125-2 mM, 100 mM Tris-HCl pH 7.5, 25 °C, 5% methanol; read-out: CDNB kinetic constant^a
T1 construct: gene GST
T1 sequence (A0A2Z6FA39 1-230): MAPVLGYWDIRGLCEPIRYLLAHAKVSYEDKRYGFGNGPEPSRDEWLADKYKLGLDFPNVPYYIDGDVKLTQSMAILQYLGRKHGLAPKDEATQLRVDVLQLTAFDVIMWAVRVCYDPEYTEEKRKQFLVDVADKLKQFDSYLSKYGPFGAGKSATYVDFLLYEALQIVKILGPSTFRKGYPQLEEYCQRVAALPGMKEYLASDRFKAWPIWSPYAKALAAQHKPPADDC

[2] = target: T2, HlGST (recombinant HlGST, rHlGST) (Haemaphysalis longicornis, UniProt Q6JVN0); assay: absorbance at […] nm, Lineweaver-Burk plot; format: biochemical; settings: 5 mM GSH, CDNB 0.125-2 mM, 100 mM Tris-HCl pH 7.5, 25 °C, 5% methanol; read-out: CDNB kinetic constant^a
T2 construct: gene GST
T2 sequence (Q6JVN0 1-223): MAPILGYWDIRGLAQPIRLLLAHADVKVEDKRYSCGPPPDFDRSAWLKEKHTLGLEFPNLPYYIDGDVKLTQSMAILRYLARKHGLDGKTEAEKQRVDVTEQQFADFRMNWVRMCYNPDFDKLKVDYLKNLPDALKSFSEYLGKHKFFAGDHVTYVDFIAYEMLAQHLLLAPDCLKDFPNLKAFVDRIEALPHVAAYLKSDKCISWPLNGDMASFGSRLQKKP

O=[N+]([O-])c1ccc(Cl)c([N+](=O)[O-])c1 [CDNB, 1-chloro-2,4-dinitrobenzene]
Km [1]: 610 ± 200 µM
Km [2]: 820 ± 140 µM
